How the values were obtained:
[1] = system: C. albicans; assay: 5 day kidney bioburden evaluation in immunocompetent mice challenged with C. albicans; assay type: in vivo, Swiss-Webster mice; settings: for effective in % of mice: greater than 2 log10 reduction in kidney CFU
Procedure: (§1) A variety of the compounds synthesized as described in Section 5, supra, were tested in various in vivo assays, as described below. The results of the various assays are provided in TABLE 3, presented at the end of this section. In all of the in vivo assays described, the test compounds, in the form of the aspartate salts, were formulated in an aqueous vehicle (5% mannitol in sterile water; OSMITROL, Baxter Healthcare, Deerfield, Ill.), followed by appropriate dilutions. The formulations were prepared fresh before dosing.
(§2) AmB and AME were also tested for comparison. For AmB, the commercially available FUNGIZONE (Bristol-Meyers Squibb Co.) was used. Reported values are based upon the weight of the AmB active ingredient, not on the basis of the weight of the FUNGIZONE powder. AME was formulated in OSMITROL as described for the test compounds.
Various polyene macrolide amide derivatives of the invention were evaluated for their protective effect when administered intraperitoneally once daily for 5 days to immunocompetent mice challenged with live C. albicans.
C. albicans was grown on Sabouraud dextrose agar (SDA) plates for 48 hr. Colonies were harvested and washed twice by centrifugation in phosphate-buffered saline (PBS). The washed pellets were resuspended in PBS and diluted to achieve the desired number of fungi per milliliter. A portion of the inoculum was plated on SDA plates to determine the colony-forming units (CFU) per milliliter.
(§3) Swiss-Webster mice (Simonsen Laboratories, Gilroy, Calif.) were administered by intravenous injection a single inoculum (0.2 mL) containing as estimated 2.0×10^5 CFU of C. albicans. The day of inoculation was designated as study day 0. Beginning three days after injection, mice were treated intraperitoneally with vehicle alone or formulated test compound once daily for 5 consecutive days.
(§4) The mice were observed daily from study day 0 through study day 10 (3 days after the last dose). Mice found dead or euthanized in extremis were removed from the study without further processing. Surviving mice were euthanized by inhalation of CO2 on study day 10 and both kidneys from each mouse were removed. Each pair of removed kidneys was homogenized in 3 mL of ice-cold PBS containing 10% glycerol. A portion of each homogenate was used to determine log10 CFU per kidney using SDA plates (48 hours of incubation at 30° C.). Kidney log10 CFU data were analyzed using a t-test. The criterion for a statistically significant response was set at p<0.01.
(§5) For comparison, the results for AmB and AME are also provided. Efficacy was defined for individual animals as a greater than 2 log10 reduction in kidney CFU relative to the mean vehicle control value.

[2] = system: C. albicans; assay: 7 day kidney bioburden evaluation in neutropenic mice challenged with C. albicans; assay type: in vivo, Swiss-Webster mice; settings: Candida albicans, ip, 168 h, intraperitoneally once daily for 7 days, 50% of animals with 2 log10 reduction in kidney CFU
Procedure: as §1, §2
Various polyene macrolide amide derivatives of the invention were evaluated for their protective effect when administered intraperitoneally once daily for 7 days to neutropenic mice challenged with live C. albicans.
as §3, with “made neutropenic by intravenous administration of 5-fluorouracil (150 mg/kg) on study day −1. On study day 0, all mice received” for “administered”, “5.0×10^4” for “2.0×10^5”, “the day” for “three days”, “infection (on study day 1),” for “injection,”, “compound,” for “compound”, “7” for “5”
as §4, with “day 1” for “day 0”, “day 8 (1 day” for “day 10 (3 days”, “day 8” for “day 10”
as §5

[3] = Ascending single-dose nephrotoxicity study in rabbits; assay type: in vivo, Female New Zealand white rabbits; settings: female, New Zealand white, rabbit, in vivo, ascending single intravenous infusion doses, urine volume, BUN, creatinine, read-out: NOAEL acute rabbit
Procedure: as §1
AmB and AME were also tested for comparison. For AmB, the commercially available FUNGIZONE (Bristol-Meyers Squibb Co.) was used. […]
Various polyene macrolide amide derivatives of the invention were evaluated to determine the intravenous dose of administered compound that produces nephrotoxicity in rabbits. Nephrotoxicity was monitored by measuring urine volume and blood urine nitrogen (BUN) and creatinine. […]
Ascending single doses were administered by intravenous infusion into an ear vein at a rate of 0.6 mL/min. […] Body weights were recorded before each dose, as well as 2 days after the last dose. Blood samples were collected from the rabbits two days prior to the first dose (study day −2) and approximately 24 hr after each dose and analyzed for BUN and creatinine. […]

Question: Which “effective in % of mice” value ([1]; 2 mg/kg/day intraperitoneally) does the source give for C[C@@H]1[C@H](O)[C@@H](C)/C=C/C=C/C=C/C=C/C=C/C=C/C=C/[C@H](O[C@@H]2O[C@H](C)[C@@H](O)[C@H](N)[C@@H]2O)C[C@@H]2O[C@](O)(C[C@@H](O)C[C@@H](O)[C@H](O)CC[C@@H](O)C[C@@H](O)CC(=O)O[C@H]1C)C[C@H](O)[C@H]2C(=O)O [AMB, amphotericin B, reference compound] here?
Answer: 20%

Question: And the “effective in % of mice” value ([1]; 4 mg/kg/day intraperitoneally)?
Answer: 60%

Question: And the “effective in % of mice” value ([1]; 8 mg/kg/day intraperitoneally)?
Answer: 100%

Question: What about the “effective in % of mice” value ([1]; 16 mg/kg/day intraperitoneally) of the same molecule?
Answer: 78%

Question: And the ED50 ([1]; Candida albicans, ip, 120 h, intraperitoneally once daily for 5 days, immunocompetent mice, C. albicans, 50% of animals with 2 log10 reduction in kidney CFU, read-out: ED50 mice 5 day)?
Answer: 3 mg/kg

Question: What about the ED50 ([1]; intraperitoneally, 5 day kidney bioburden model, calculated) of the same molecule?
Answer: 3 mg/kg/day

Question: What about the ED50 [2] of the same molecule?
Answer: 0.3 mg/kg

Question: And the NOAEL [3]?
Answer: 0.375 mg/kg
